Results on 4 compounds are retold here after publication PMC8428802 (Journal of medicinal chemistry, 2020).

For data set [1], the target named is over 30 brain receptors or channels. Nature of the data set: NIMH-PDSP broad-panel counter screening. Type of data set: binding. As to conditions: 10 μM. For orientation: A counterscreen serves to expose hits that act by an unwanted route or on another target.
Data set [2] deals with hERG (Homo sapiens, UniProt Q12809). Put plainly: NIMH-PDSP counter screening, hERG binding. The conditions noted are these: 10 μM.
Sequence of hERG (Q12809 whole entry): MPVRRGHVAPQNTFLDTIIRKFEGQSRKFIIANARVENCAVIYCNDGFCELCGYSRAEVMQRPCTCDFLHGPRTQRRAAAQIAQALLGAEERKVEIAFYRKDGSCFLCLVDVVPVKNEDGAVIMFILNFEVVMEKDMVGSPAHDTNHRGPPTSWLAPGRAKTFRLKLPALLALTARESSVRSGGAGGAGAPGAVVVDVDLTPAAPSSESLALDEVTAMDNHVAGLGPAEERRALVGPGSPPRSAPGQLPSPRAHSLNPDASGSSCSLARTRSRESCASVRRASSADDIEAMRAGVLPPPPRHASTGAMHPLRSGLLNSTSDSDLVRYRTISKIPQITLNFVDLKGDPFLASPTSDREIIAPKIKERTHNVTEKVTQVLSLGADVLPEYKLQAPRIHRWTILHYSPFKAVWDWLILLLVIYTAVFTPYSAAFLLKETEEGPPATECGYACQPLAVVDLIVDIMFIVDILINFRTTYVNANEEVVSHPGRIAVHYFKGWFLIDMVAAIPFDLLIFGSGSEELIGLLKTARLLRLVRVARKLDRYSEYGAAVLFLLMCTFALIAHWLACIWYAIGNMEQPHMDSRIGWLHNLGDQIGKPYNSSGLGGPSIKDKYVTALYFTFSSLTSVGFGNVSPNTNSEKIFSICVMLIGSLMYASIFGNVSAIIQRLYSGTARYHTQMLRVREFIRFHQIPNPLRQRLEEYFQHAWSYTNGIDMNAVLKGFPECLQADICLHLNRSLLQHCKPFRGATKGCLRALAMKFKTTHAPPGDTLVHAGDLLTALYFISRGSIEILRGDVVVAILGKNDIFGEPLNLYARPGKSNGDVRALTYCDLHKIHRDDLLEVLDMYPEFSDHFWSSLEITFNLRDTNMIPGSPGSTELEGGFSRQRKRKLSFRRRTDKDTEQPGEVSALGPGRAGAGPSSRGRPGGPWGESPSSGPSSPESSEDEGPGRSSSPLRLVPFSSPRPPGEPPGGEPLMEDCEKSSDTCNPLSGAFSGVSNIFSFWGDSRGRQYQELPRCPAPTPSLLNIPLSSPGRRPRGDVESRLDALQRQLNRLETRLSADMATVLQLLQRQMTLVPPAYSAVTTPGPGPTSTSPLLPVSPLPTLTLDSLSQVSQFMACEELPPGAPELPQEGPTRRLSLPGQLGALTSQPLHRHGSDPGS
In data set [3] the test system is HEK293 cells lacking GPR52. Put plainly: cAMP control study in HEK293 cells lacking GPR52. Type of data set: cell-based, human.
Data set [4] deals with human GPR52 (Homo sapiens, UniProt Q9Y2T5). Put plainly: Glosensor cAMP assay in HEK293 cells transiently expressing human GPR52. The format is cell-based. As to conditions: for decreased EC50 (loss of potency): comparator not stated. On the technique in general: Changes in cAMP serve as a functional read-out for many G protein-coupled receptors.
Sequence of human GPR52 (Q9Y2T5 whole entry): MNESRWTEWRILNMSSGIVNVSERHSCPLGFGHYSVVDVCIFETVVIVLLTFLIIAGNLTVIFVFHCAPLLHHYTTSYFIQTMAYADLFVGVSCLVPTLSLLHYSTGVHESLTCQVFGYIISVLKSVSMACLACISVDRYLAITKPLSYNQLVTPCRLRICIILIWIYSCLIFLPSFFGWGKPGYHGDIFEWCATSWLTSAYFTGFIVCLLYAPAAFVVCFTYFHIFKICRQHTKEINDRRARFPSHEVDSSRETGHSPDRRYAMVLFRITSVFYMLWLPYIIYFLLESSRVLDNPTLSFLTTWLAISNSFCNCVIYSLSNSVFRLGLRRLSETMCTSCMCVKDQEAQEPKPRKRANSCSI

For `O=C(NCCO)c1cccc2c1CCN2c1cc(Cc2cc(F)cc(C(F)(F)F)c2)ncn1` [Compound 12c, 1-(6-(3-Fluoro-5-(trifluoromethyl)benzyl)pyrimidin-4-yl)-N-(2-hydroxyethyl)indoline-4-carboxamide], the “binding affinity (Ki) at panel” value in data set [1] is “no significant binding affinity”. In addition, in data set [2], the “hERG potassium channel binding activity” value is reported as “did not show any”. For the same compound, the “cAMP increase in cells lacking GPR52” value in data set [3] is reported as “did not increase cAMP”.

On to `Cc1c(Cc2cc(F)cc(C(F)(F)F)c2)cnnc1N1CCc2c(C(=O)NCCO)cccc21` [Compound 12e, 1-(5-(3-Fluoro-5-(trifluoromethyl)benzyl)-4-methylpyridazin-3-yl)-N-(2-hydroxyethyl)indoline-4-carboxamide], for which the “decreased EC50 (loss of potency)” value in data set [4] is listed as over 4 fold.

Take `O=C(NCCO)c1cccc2c1CCN2c1nncc(Cc2cc(F)cc(C(F)(F)F)c2)c1Cl` [Compound 12f, 1-(4-Chloro-5-(3-fluoro-5-(trifluoromethyl)benzyl)-pyridazin-3-yl)-N-(2-hydroxyethyl)indoline-4-carboxamide]: the “decreased EC50 (loss of potency)” value in data set [4] was over 4 fold.

Take `O=C(NCCO)c1cccc2c1CCN2c1cc(Cc2ccccc2C(F)(F)F)ncn1` [Compound 23b, N-(2-Hydroxyethyl)-1-(6-(2-(trifluoromethyl)benzyl)-pyrimidin-4-yl)indoline-4-carboxamide]: the “loss of potency relative to 23a” value in data set [4] (EC50 vs compound 23a) was over 7 fold.
